Test systems include MOLT-4 leukemia; SNB-75 CNS; IGROV1 ovarian; OVCAR-8 ovarian; SR leukemia; NCI/ADR-RES ovarian; HOP-92 NSCLC; SW-620 colon; LOX IMVI melanoma; RXF 393 renal.
What all share (assay): NCI-60 cell line screen, 48 h

“And” between values parts separate entries of the source, which are not always exact repeats. Equal values may be shown once.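 In this assay, cells in 96-well plates receive the compound at five concentrations for 48 hours. Endpoints are linearly interpolated between the surrounding concentrations. GI50 is the concentration that inhibits growth by half. The concentration for full growth arrest is given as TGI.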

Consider `Oc1ccc(Cl)cc1Sc1cc(Cl)ccc1O`, for which the GI50 in the test on MOLT-4 leukemia was 3.77 µM; with SNB-75 CNS it was 2.94 µM; in the test with IGROV1 ovarian, 3.52 µM; in the test with OVCAR-8 ovarian it was 3.36 µM; in the test on SR leukemia, 3.53 µM; in the test with NCI/ADR-RES ovarian, 2.48 µM. Besides, the GI50 was 0.421 µM with HOP-92 NSCLC, 4.02 µM in the test with SW-620 colon, 2.63 µM in the test on LOX IMVI melanoma and 4.88 µM in the test on RXF 393 renal. The TGI is > 100 µM and 24.7 µM in the test on MOLT-4 leukemia; 36.4 µM and 10.6 µM in the test on SNB-75 CNS; 32.5 µM and 9.5 µM in the test on IGROV1 ovarian; 42.7 µM and 10.8 µM with OVCAR-8 ovarian; 51.6 µM and 12.2 µM in the test on SR leukemia; 57.8 µM and 7.47 µM with NCI/ADR-RES ovarian. Besides, the TGI was 9.71 µM and 3.43 µM in the test on HOP-92 NSCLC; 39.6 µM and 13.8 µM with SW-620 colon; 24 µM and 8.42 µM in the test with LOX IMVI melanoma; 31.1 µM and 17.1 µM with RXF 393 renal.

As to `CCN(CC)S(=O)(=O)c1cccc(-c2ccc3c(NC(=O)C4CC4)n[nH]c3c2)c1`, the GI50 with MOLT-4 leukemia is 1.75 µM; with SNB-75 CNS, 1.32 µM; in the test with IGROV1 ovarian it was 3.79 µM; in the test on OVCAR-8 ovarian, 2.69 µM; with SR leukemia, 0.259 µM; in the test on NCI/ADR-RES ovarian, above 6.25 µM. For the same compound, the GI50 in the test on HOP-92 NSCLC was 2.58 µM; in the test with SW-620 colon, 2.27 µM; with LOX IMVI melanoma, 2.44 µM; with RXF 393 renal, 1.94 µM. In addition, the TGI in the test on MOLT-4 leukemia, in the test with SNB-75 CNS, with IGROV1 ovarian, in the test on OVCAR-8 ovarian, in the test with SR leukemia and in the test with NCI/ADR-RES ovarian was above 6.25 µM throughout. The TGI is above 6.25 µM with HOP-92 NSCLC, above 6.25 µM in the test with SW-620 colon, above 6.25 µM with LOX IMVI melanoma and 5.17 µM in the test on RXF 393 renal.

Turning to `CN(C)c1cc2c(Nc3ccc4c(cnn4Cc4ccccc4)c3)ncnc2cn1`, the GI50 was 9.47 µM in the test with MOLT-4 leukemia; above 22 µM with SNB-75 CNS; 5.38 µM with IGROV1 ovarian; 9.13 µM with OVCAR-8 ovarian; 12.8 µM in the test on SR leukemia; 5.85 µM in the test on NCI/ADR-RES ovarian. Moreover, the GI50 was 8.82 µM with HOP-92 NSCLC, 15.3 µM with SW-620 colon, 8.32 µM with LOX IMVI melanoma and 8.3 µM in the test with RXF 393 renal. Moreover, the TGI with MOLT-4 leukemia is above 25 µM; with SNB-75 CNS, above 25 µM; in the test on IGROV1 ovarian, above 23.3 µM; with OVCAR-8 ovarian it was above 25 µM; with SR leukemia, above 25 µM; in the test on NCI/ADR-RES ovarian it was above 25 µM. Also, the TGI in the test on HOP-92 NSCLC is above 25 µM; with SW-620 colon it was above 25 µM; in the test with LOX IMVI melanoma it was above 25 µM; with RXF 393 renal it was above 20.8 µM.

On to `OC(CN1CCCC2CCCCC21)c1cc2ccccc2c2ccccc12` (stereo not given), for which the GI50 in the test with MOLT-4 leukemia was 1.81 µM; with SNB-75 CNS, 1.9 µM; with IGROV1 ovarian, 2.59 µM; in the test on OVCAR-8 ovarian, 3.2 µM; in the test with SR leukemia, 1.6 µM; with NCI/ADR-RES ovarian, 2.07 µM. Also, the GI50 is 1.24 µM in the test with HOP-92 NSCLC, 1.66 µM with SW-620 colon, 1.53 µM in the test with LOX IMVI melanoma and 1.71 µM in the test with RXF 393 renal. Also, the TGI in the test on MOLT-4 leukemia amounted to 4.79 µM; in the test on SNB-75 CNS, 6.83 µM; in the test on IGROV1 ovarian, 8.66 µM; in the test on OVCAR-8 ovarian, 15.3 µM; in the test with SR leukemia, 3.43 µM; with NCI/ADR-RES ovarian it was 5.19 µM. Besides, the TGI in the test on HOP-92 NSCLC was found to be 3.42 µM; with SW-620 colon, 3.36 µM; in the test on LOX IMVI melanoma, 2.93 µM; with RXF 393 renal, 3.59 µM.

As to `O=C(NCc1ccco1)C1CCN(S(=O)(=O)c2ccc(Cl)cc2)CC1`, the GI50 in the test on MOLT-4 leukemia was 74.1 µM; with SNB-75 CNS it was above 100 µM; in the test on IGROV1 ovarian, above 100 µM; with OVCAR-8 ovarian, above 100 µM; in the test with SR leukemia, 72.8 µM; in the test on NCI/ADR-RES ovarian it was above 100 µM. Also, the GI50 in the test on HOP-92 NSCLC is above 100 µM; in the test on SW-620 colon, above 100 µM; in the test with LOX IMVI melanoma it was 36.3 µM; in the test on RXF 393 renal, above 100 µM. Further, the TGI in the test on MOLT-4 leukemia, in the test with SNB-75 CNS, in the test on IGROV1 ovarian, in the test on OVCAR-8 ovarian, in the test on SR leukemia and with NCI/ADR-RES ovarian was above 100 µM throughout. Also, the TGI in the test on HOP-92 NSCLC, in the test with SW-620 colon, in the test with LOX IMVI melanoma and in the test on RXF 393 renal was above 100 µM in each case.

With `CC1=NN(c2cccc(Cl)c2)C(=O)/C1=C\C=C\c1ccccc1`, the GI50 is 3.17 µM in the test on MOLT-4 leukemia; 7.12 µM in the test on SNB-75 CNS; 1.67 µM in the test with IGROV1 ovarian; 2.63 µM in the test with OVCAR-8 ovarian; 2.36 µM in the test on SR leukemia; 3.4 µM in the test with NCI/ADR-RES ovarian. Moreover, the GI50 is 4.63 µM in the test on HOP-92 NSCLC, 1.74 µM in the test with SW-620 colon, 1.48 µM in the test with LOX IMVI melanoma and 2.12 µM in the test with RXF 393 renal. Moreover, the TGI was above 100 µM in the test on MOLT-4 leukemia; above 100 µM with SNB-75 CNS; 4.23 µM in the test with IGROV1 ovarian; 9.44 µM in the test on OVCAR-8 ovarian; above 100 µM with SR leukemia; above 100 µM with NCI/ADR-RES ovarian. Also, the TGI came out at 43 µM in the test with HOP-92 NSCLC, 3.44 µM with SW-620 colon, 3.15 µM with LOX IMVI melanoma and 3.92 µM in the test with RXF 393 renal.

Consider `COC(=O)c1c2c(c(C)[n+]([O-])c1C)C(=O)C(NCc1ccc(F)cc1)=CC2=O`, for which the GI50 in the test on MOLT-4 leukemia is 1.98 µM; in the test with SNB-75 CNS, 2.23 µM; in the test with IGROV1 ovarian, 1.15 µM; in the test with OVCAR-8 ovarian, 1.59 µM; in the test on SR leukemia, 1.7 µM; in the test with NCI/ADR-RES ovarian, 1.68 µM. Further, the GI50 was 2.31 µM with HOP-92 NSCLC, 1.17 µM in the test on SW-620 colon, 1.94 µM in the test with LOX IMVI melanoma and 1.56 µM with RXF 393 renal. The TGI in the test with MOLT-4 leukemia is 5.33 µM; with SNB-75 CNS, 5.96 µM; in the test on IGROV1 ovarian, 2.76 µM; in the test on OVCAR-8 ovarian, 7.78 µM; with SR leukemia, above 100 µM; with NCI/ADR-RES ovarian it was 5.53 µM. The TGI with HOP-92 NSCLC amounted to 4.61 µM; in the test with SW-620 colon, 3.2 µM; in the test with LOX IMVI melanoma it was 6.32 µM; with RXF 393 renal it was 3.51 µM.

These data come from PubChem BioAssay (NCI).
